For one assay, the target named is T1, human kinase Mps-1 (Homo sapiens, UniProt P33981).
T1 construct: N-terminally GST-tagged human full length recombinant Mps-1 kinase; GST (N); purchased Invitrogen, Karslruhe, Germany PV4071
T1 sequence (P33981 1-857): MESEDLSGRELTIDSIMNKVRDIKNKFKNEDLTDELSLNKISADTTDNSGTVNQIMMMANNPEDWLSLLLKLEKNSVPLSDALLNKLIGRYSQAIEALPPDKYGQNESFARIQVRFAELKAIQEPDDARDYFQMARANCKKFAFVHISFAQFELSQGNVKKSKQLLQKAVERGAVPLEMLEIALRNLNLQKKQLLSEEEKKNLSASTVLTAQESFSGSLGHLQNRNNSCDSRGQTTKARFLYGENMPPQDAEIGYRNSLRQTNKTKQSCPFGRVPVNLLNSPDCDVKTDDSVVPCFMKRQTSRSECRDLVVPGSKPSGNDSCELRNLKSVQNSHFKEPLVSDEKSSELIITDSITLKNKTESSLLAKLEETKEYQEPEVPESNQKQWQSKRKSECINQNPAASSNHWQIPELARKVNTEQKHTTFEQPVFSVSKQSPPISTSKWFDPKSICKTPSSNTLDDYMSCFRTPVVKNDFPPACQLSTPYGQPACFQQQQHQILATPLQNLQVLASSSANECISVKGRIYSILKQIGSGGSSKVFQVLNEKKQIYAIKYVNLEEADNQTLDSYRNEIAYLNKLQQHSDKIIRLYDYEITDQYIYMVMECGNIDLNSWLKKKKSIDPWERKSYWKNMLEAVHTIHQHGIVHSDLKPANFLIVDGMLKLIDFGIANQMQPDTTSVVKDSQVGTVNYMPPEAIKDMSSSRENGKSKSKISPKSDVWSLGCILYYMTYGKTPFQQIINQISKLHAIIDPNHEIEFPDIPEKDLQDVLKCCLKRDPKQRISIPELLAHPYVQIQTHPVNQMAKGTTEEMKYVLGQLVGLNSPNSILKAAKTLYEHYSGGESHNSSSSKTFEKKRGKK
The assay can be described thus: Mps-1 kinase assay (TR-FRET). It is filed as biochemical. Particulars: Mps1 IC50 [nM], N-terminally GST-tagged human full length recombinant Mps-1; 10 μM ATP; 1 μM biotinylated peptide substrate; 60 min at 22° C. A general note: Time-resolved FRET reads energy transfer from a long-lived donor to a nearby acceptor.
With `O=C(NC1CC1)c1ccc(-c2cnc3c(NCC(O)C(F)(F)F)nccn23)cc1O` (centres unmarked) [Example 7-82, N-cyclopropyl-2-hydroxy-4-{8-[(3,3,3-trifluoro-2-hydroxypropyl)amino]imi-dazo[1,2-a]pyrazin-3-yl}benzamide], the IC50 is 56.7 nM.

As to `CC(C)CNc1nccn2c(-c3ccc(C(=O)NC4CC4)cc3F)cnc12` [Example 1-3, N-cyclopropyl-3-fluoro-4-{8-[(2-methylpropyl)amino]imi-dazo[1,2-a]pyrazin-3-yl}benzamide], the IC50 turned out to be 9 nM.

Take `CCOC(C)CNc1nccn2c(-c3ccc(C(=O)NC4CC4)c(O)c3)cnc12` (centres unmarked) [Example 7-86, N-cyclopropyl-4-{8-[(2-ethoxypropyl)amino]imi-dazo[1,2-a]pyrazin-3-yl}-2-hydroxybenzamide]: the IC50 is 268 nM.

For the compound `COCCNc1nccn2c(-c3ccc(C(=O)NC4CC4)cc3)cnc12` [Example 7-2, N-cyclopropyl-4-{8-[(2-methoxyethyl)amino]imi-dazo[1,2-a]pyrazin-3-yl}benzamide], the IC50 was 272 nM.

With `COCCNc1nccn2c(-c3ccc(C(=O)NC4CC4)c(C)c3)cnc12` [Example 7-96, N-cyclopropyl-4-{8-[(2-methoxyethyl)amino]imi-dazo[1,2-a]pyrazin-3-yl}-2-methylbenzamide], the IC50 was 229 nM.

In the case of `N#CCCNc1nccn2c(-c3ccc(C(=O)NC4CC4)c(O)c3)cnc12` [Example 7-81, 4-{8-[(2-cyanoethyl)amino]imi-dazo[1,2-a]pyrazin-3-yl}-N-cyclopropyl-2-hydroxybenzamide], the IC50 came out at 51.3 nM.

For `Cc1cc(-c2cnc3c(NCc4ccnn4C)nccn23)ccc1C(=O)NC1CC1` [Example 5-5, N-cyclopropyl-2-methyl-4-(8-{[(1-methyl-1H-pyrazol-5-yl)methyl]amino}imi-dazo[1,2-a]pyrazin-3-yl)benzamide], the IC50 stood at 67 nM.

In the case of `Cc1cc(-c2cnc3c(NCCC(C)C)nccn23)ccc1C(=O)NC1CC1` [Example 7-93, N-cyclopropyl-2-methyl-4-{8-[(3-methylbutyl)amino]imi-dazo[1,2-a]pyrazin-3-yl}benzamide], the IC50 is 13.2 nM.

Turning to `CC(O)CNc1nccn2c(-c3ccc(C(=O)NC4CC4)c(Cl)c3)cnc12` (centres unmarked) [Example 7-57, 2-chloro-N-cyclopropyl-4-{8-[(2-hydroxypropyl)amino]imi-dazo[1,2-a]pyrazin-3-yl}benzamide], the IC50 turned out to be 401 nM.

For the compound `Cc1cc(-c2cnc3c(NCc4cccs4)nccn23)ccc1C(=O)NC1CC1` [Example 7-102, N-cyclopropyl-2-methyl-4-{8-[(thiophen-2-ylmethyl)amino]imi-dazo[1,2-a]pyrazin-3-yl}benzamide], the IC50 worked out at 18.7 nM.

Turning to `COCCCNc1nccn2c(-c3ccc(C(=O)NC4CC4)c(C)c3)cnc12` [Example 7-116, N-cyclopropyl-4-{8-[(3-methoxypropyl)amino]imi-dazo[1,2-a]pyrazin-3-yl}-2-methylbenzamide], the IC50 amounted to 141 nM.

`O=C(NC1CC1)c1ccc(-c2cnc3c(NCC4CCCO4)nccn23)cc1O` (centres unmarked) [Example 7-72, N-cyclopropyl-2-hydroxy-4-{8-[(tetrahydrofuran-2-ylmethyl)amino]imi-dazo[1,2-a]pyrazin-3-yl}benzamide]: the IC50 was found to be 36.3 nM.

For `O=C(NC1CC1)c1ccc(-c2cnc3c(NCc4cccc(F)c4)nccn23)cc1Cl` [Example 7-33, 2-chloro-N-cyclopropyl-4-{8-[(3-fluorobenzyl)amino]imi-dazo[1,2-a]pyrazin-3-yl}benzamide], the IC50 worked out at 200 nM.

Regarding `CC(=O)NCCNc1nccn2c(-c3ccc(C(=O)NC4CC4)c(C)c3)cnc12` [Example 7-106], the IC50 was 1470 nM.

In the case of `O=C(NC1CC1)c1ccc(-c2cnc3c(NCc4ccc(Cl)s4)nccn23)cc1O` [Example 7-88, 4-(8-{[(5-chlorothiophen-2-yl)methyl]amino}imi-dazo[1,2-a]pyrazin-3-yl)-N-cyclopropyl-2-hydroxybenzamide], the IC50 stood at 91.3 nM.

`Cc1cc(-c2cnc3c(NCC(O)C(F)(F)F)nccn23)ccc1C(=O)NC1CC1` (centres unmarked) [Example 7-113, N-cyclopropyl-2-methyl-4-{8-[(3,3,3-trifluoro-2-hydroxypropyl)amino]imi-dazo[1,2-a]pyrazin-3-yl}benzamide]: the IC50 worked out at 36.7 nM.

The same assay, now with this note: N-terminally GST-tagged human full length recombinant Mps-1; 10 μM ATP; 1 μM biotinylated peptide substrate; 60 min at 22° C.; read-out: Mps1 IC50.
In the case of `Cc1cc(-c2cnc3c(NCC(F)(F)C(F)(F)F)nccn23)ccc1C(=O)NC1CC1` [Example 7-112, N-cyclopropyl-2-methyl-4-{8-[(2,2,3,3,3-pentafluoropropyl)ami-no]imidazo[1,2-a]pyrazin-3-yl}benzamide], the IC50 stood at 81.6 nM.

By IC50 is commonly meant the concentration needed to halve the response being measured.

The values are drawn from patent US20130303532A1, “IMIDAZOPYRAZINES FOR USE AS MPS-1 AND TKK INHIBITORS IN THE TREATMENT HYPERPROLIFERATIVE DISORDERS” (BAYER INTELLECTUAL PROPERTY GmbH, priority 2010, published 2013).
